From patent publication US11725189B2, “Maintenance culture of induced pluripotent stem cell-derived intestinal stem cells” (PUBLIC UNIVERSITY CORPORATION NAGOYA CITY UNIVERSITY, priority 2017, dated 2023)

Experiments:
[1] = system: chromogranin A (CgA); assay: Detection of CgA mRNA (real-time RT-PCR) in human iPS cell-derived intestinal epithelial cells; type: cell-based
Source text: (§1) iPS cells were allowed to differentiate into intestinal stem cells, which were then subcultured once. Thereafter, the cells were subjected to a maintenance culture according to the culture method of intestinal stem cells, which had been established in the above-described studies, and were then allowed to differentiate into intestinal epithelial cells.
(§2) After the differentiated intestinal epithelial cells had been recovered, RNA was extracted using Agencourt (registered trademark) RNAdvance™ Tissue Kit, in accordance with the instruction manual included therewith.
(§3) Complementary DNA (cDNA) was synthesized using ReverTra Ace (registered trademark) qPCR RT Master Mix, in accordance with the instruction manual included therewith.
(§4) Real-Time RT-PCR was carried out on cDNA used as a template, using KAPA SYBR Fast qPCR Kit, in accordance with the instruction manual included therewith.

[2] = system: mucin 2; assay: Detection of mucin 2 mRNA (real-time RT-PCR) in human iPS cell-derived intestinal epithelial cells; type: cell-based
Source text: as §1, §2, §3, §4

[3] = biological target: T1, TGF-β receptor ALK7 (Homo sapiens, UniProt Q8NER5); settings: cited from earlier work
T1 sequence (Q8NER5 21-493): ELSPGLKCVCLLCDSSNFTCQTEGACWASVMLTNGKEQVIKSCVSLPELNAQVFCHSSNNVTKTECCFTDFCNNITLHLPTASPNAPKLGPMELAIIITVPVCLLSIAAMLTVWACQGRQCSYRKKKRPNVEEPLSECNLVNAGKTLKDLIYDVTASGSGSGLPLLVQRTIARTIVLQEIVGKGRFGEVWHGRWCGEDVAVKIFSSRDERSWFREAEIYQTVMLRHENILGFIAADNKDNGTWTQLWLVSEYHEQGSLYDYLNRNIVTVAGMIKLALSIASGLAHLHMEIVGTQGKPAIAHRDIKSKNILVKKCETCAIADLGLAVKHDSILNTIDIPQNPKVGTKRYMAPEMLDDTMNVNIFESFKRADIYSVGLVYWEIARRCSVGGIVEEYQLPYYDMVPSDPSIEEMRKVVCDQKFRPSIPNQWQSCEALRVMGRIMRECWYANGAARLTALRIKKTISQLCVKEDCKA

[4] = biological target: T2, TGF-β receptor ALK5 (Homo sapiens, UniProt P36897); settings: cited from earlier work
T2 sequence (P36897 34-503): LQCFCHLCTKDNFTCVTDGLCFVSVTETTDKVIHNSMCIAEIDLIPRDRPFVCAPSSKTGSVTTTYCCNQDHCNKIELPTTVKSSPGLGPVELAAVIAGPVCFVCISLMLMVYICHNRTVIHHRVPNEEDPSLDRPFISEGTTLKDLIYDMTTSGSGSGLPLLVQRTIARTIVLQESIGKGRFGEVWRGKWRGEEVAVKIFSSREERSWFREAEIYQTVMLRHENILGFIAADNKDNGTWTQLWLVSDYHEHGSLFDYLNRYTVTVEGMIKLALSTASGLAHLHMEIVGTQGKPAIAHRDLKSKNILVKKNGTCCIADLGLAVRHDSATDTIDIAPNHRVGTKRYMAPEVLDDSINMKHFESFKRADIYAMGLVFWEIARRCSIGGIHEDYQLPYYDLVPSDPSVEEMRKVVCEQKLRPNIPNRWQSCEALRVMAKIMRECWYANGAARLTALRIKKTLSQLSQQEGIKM

[5] = biological target: T3, TGF-β receptor ALK4 (Homo sapiens, UniProt P36896); settings: cited from earlier work
T3 sequence (P36896 24-505): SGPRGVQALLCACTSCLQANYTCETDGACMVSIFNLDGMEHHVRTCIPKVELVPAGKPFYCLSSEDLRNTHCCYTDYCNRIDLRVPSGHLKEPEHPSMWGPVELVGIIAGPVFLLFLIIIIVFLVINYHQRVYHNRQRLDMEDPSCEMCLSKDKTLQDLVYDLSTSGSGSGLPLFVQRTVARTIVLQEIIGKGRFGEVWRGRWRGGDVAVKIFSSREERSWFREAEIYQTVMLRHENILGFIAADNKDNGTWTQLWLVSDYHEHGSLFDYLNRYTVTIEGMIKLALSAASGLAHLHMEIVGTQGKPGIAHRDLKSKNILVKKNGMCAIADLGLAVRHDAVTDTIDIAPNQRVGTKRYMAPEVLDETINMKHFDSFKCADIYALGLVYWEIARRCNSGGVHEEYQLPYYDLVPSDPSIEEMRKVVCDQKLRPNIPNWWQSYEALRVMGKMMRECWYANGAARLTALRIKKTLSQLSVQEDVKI

[6] = 100 μM or 200 μM rebamipide together with 200 μM indomethacin, 6 days

Compound | increase in the expression level of CgA (mRNA expression level) ([1]; 50 μM, 100 μM and 200 μM added to the medium for 6 days) | decrease in the expression level of CgA (mRNA expression level) caused by indomethacin [1, 6] | expression level of mucin 2 (mRNA expression level) ([2]; 50 μM, 100 μM and 200 μM added to the medium for 6 days, versus control (Con)) | decrease in the expression of mucin 2 (mRNA expression level) caused by indomethacin [2, 6] | cytotoxicity ([2]; 200 μM added to the medium (R200)) | inhibitory activity against TGF-β receptor ALK7 [3] | inhibitory activity against TGF-β receptor ALK5 [4] | inhibitory activity against TGF-β receptor ALK4 [5]
O=C(NC(Cc1cc(=O)[nH]c2ccccc12)C(=O)O)c1ccc(Cl)cc1 (centres unmarked) [rebamipide] | not particularly observed | tended to be suppressed | increased | tended to be suppressed | likely to cause cytotoxicity |  |  | 
Cc1cccc(-c2nn(C(=S)Nc3ccccc3)cc2-c2ccnc3ccccc23)n1 [A-83-01] |  |  |  |  |  | exhibited inhibitory activity | exhibited inhibitory activity | exhibited inhibitory activity
